Test results reported in patent US20150105252A1, “SUBSTITUTED PYRAZOLES AS HERBICIDES” (E I DU PONT DE NEMOURS AND COMPANY, priority 2013, published 2015).

Legend:
[1] = test system: crabgrass, Brazil; assay: Test F preemergence; type: in vivo, Digitaria horizontalis
Outline: (§1)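 Percent-control style visual scores, from 0 (no effect) to 100 (complete control), were given relative to controls. Treatment timing: preemergence on silt loam plantings, or postemergence at 1- to 4-leaf stage. Evaluation came 14 to 21 days after spraying, greenhouse conditions.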

[2] = test system: canarygrass; assay: Test D preemergence; type: in vivo, Phalaris minor; details: scale 0 to 100
Outline: (§2)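 Pre: sown in silt loam, sprayed at once. Post: grown in peat-moss/vermiculite mix, sprayed at 1–4 leaves (2–18 cm). Formulation: non-phytotoxic solvent + surfactant. Read-out: visual 0–100 vs controls, 14–21 d.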

[3] = test system: common ragweed; assay: Test F preemergence; type: in vivo, Ambrosia elation
Outline: as §1

[4] = test system: field poppy; assay: Test D preemergence; type: in vivo, Papaver rhoeas; details: scale 0 to 100
Outline: as §2

[5] = test system: barley, winter; assay: Test D preemergence; type: in vivo, Hordeum vulgare; details: scale 0 to 100
Outline: as §2

[6] = test system: barley, spring; assay: Test D preemergence; type: in vivo, Hordeum vulgare; details: scale 0 to 100
Outline: as §2

[7] = test system: lambsquarters; assay: Test D postemergence; type: in vivo, Chenopodium album; details: scale 0 to 100
Outline: as §2

[8] = test system: pigweed; assay: Test D preemergence; type: in vivo, Amaranthus retroflexus; details: scale 0 to 100
Outline: as §2

[9] = test system: yellow nutsedge; assay: Test F preemergence; type: in vivo, Cyperus esculentus
Outline: as §1

[10] = test system: radish, wild; assay: Test D preemergence; type: in vivo, Raphanus raphanistrum; details: scale 0 to 100
Outline: as §2

[11] = test system: velvetleaf; assay: Test F preemergence; type: in vivo, Abutilon theophrasti
Outline: as §1

[12] = test system: field violet; assay: Test D postemergence; type: in vivo, Viola arvensis; details: scale 0 to 100
Outline: as §2

[13] = test system: wheat, winter; assay: Test D preemergence; type: in vivo, Triticum aestivum; details: scale 0 to 100
Outline: as §2

[14] = test system: wheat, spring; assay: Test D preemergence; type: in vivo, Triticum aestivum; details: scale 0 to 100
Outline: as §2

[15] = Preemergence, 16 g ai/ha, scale 0 to 100
[16] = Preemergence, 62 g ai/ha, scale 0 to 100
[17] = Preemergence, 125 g ai/ha, scale 0 to 100
[18] = preemergence, 8 g ai/ha, scale 0 to 100, 100 is complete control

CCOc1cc(C(=O)NC(C)C)nn1Cc1ccnc(C(F)(F)F)c1 [Compound 188]
Plant response rating, Crabgrass, Brazil [1, 15]: 100 | Plant response rating, Crabgrass, Brazil [1, 16]: 100 | Plant response rating, Crabgrass, Brazil [1, 17]: 100 | Plant response rating, Crabgrass, Brazil [1, 18]: 35 | Plant response rating, Canarygrass ([2]; 31 g ai/ha): 55 | Plant response rating, Canarygrass ([2]; 62 g ai/ha): 95 | Plant response rating, Canarygrass ([2]; 125 g ai/ha): 100 | Plant response rating, Canarygrass ([2]; 250 g ai/ha): 100 | Plant response rating, Common Ragweed [3, 15]: 30 | Plant response rating, Common Ragweed [3, 16]: 90 | Plant response rating, Common Ragweed [3, 17]: 90 | Plant response rating, Common Ragweed [3, 18]: 0 | Plant response rating, Field Poppy ([4]; 62 g ai/ha): 100 | Plant response rating, Field Poppy ([4]; 125 g ai/ha): 100 | Plant response rating, Field Poppy ([4]; 250 g ai/ha): 100 | Plant response rating, Barley, Winter ([5]; 31 g ai/ha): 35 | Plant response rating, Barley, Winter ([5]; 62 g ai/ha): 70 | Plant response rating, Barley, Winter ([5]; 125 g ai/ha): 80 | Plant response rating, Barley, Winter ([5]; 250 g ai/ha): 100 | Plant response rating, Barley, Spring ([6]; 31 g ai/ha): 65 | Plant response rating, Barley, Spring ([6]; 62 g ai/ha): 75 | Plant response rating, Barley, Spring ([6]; 125 g ai/ha): 85 | Plant response rating, Barley, Spring ([6]; 250 g ai/ha): 95 | Lambsquarters plant response rating ([7]; Postemergence, 31 g ai/ha): 70 | Lambsquarters plant response rating ([7]; Postemergence, 125 g ai/ha): 80 | Lambsquarters plant response rating ([7]; Postemergence, 250 g ai/ha): 90 | Lambsquarters plant response rating ([7]; postemergence, 62 g ai/ha): 70 | Plant response rating, Pigweed ([8]; 62 g ai/ha): 100 | Plant response rating, Pigweed ([8]; 125 g ai/ha): 100 | Plant response rating, Pigweed ([8]; 250 g ai/ha): 100 | Plant response rating, Yellow Nutsedge [9, 16]: 15 | Plant response rating, Yellow Nutsedge [9, 17]: 70 | Plant response rating, Yellow Nutsedge [9, 18]: 0 | Plant response rating, Radish, Wild ([10]; 62 g ai/ha): 100 | Plant response rating, Radish, Wild ([10]; 125 g ai/ha): 100 | Plant response rating, Radish, Wild ([10]; 250 g ai/ha): 100 | Plant response rating, Velvetleaf [11, 16]: 100 | Plant response rating, Velvetleaf [11, 17]: 100 | Plant response rating, Velvetleaf [11, 18]: 0 | Plant response rating, Velvetleaf ([11]; preemergence, scale 0 to 100, 100 is complete control): 20 | Field Violet plant response rating ([12]; Postemergence, 31 g ai/ha): 85 | Field Violet plant response rating ([12]; Postemergence, 125 g ai/ha): 100 | Field Violet plant response rating ([12]; Postemergence, 250 g ai/ha): 100 | Field Violet plant response rating ([12]; postemergence, 62 g ai/ha): 85 | Plant response rating, Wheat, Winter ([13]; 62 g ai/ha): 65 | Plant response rating, Wheat, Winter ([13]; 125 g ai/ha): 95 | Plant response rating, Wheat, Winter ([13]; 250 g ai/ha): 100 | Plant response rating, Wheat, Spring ([14]; 62 g ai/ha): 70 | Plant response rating, Wheat, Spring ([14]; 125 g ai/ha): 100 | Plant response rating, Wheat, Spring ([14]; 250 g ai/ha): 100
